Measured values published in paper PMC8587047, “Synthesis and Biological Evaluation of Harmirins, Novel Harmine–Coumarin Hybrids as Potential Anticancer Agents” (Molecules, 2021).
Read-outs that look alike come from different tables or passages of the source.

Key:
HeLa = test system: HeLa; parameters: method as in doi:10.1002/slct.201601020; details: read-out: GI50 against HeLa; cited from earlier work
HepG2 = assay: MTT cytotoxicity assay, HepG2; assay type: cell-based; details: Homo sapiens, read-out: IC50 HepG2
From the text: (§1) We selected four different cancer cell lines for antiproliferative screening in vitro, which we believed would provide sufficient data on the anticancer potential of the prepared harmirins (hepatocellular carcinoma—HepG2, colorectal adenocarcinoma, Dukes’ type C—SW620, colorectal carcinoma—HCT116, and breast adenocarcinoma—MCF-7). Additionally, we included one non-cancer cell line (embryonic kidney—HEK293T) to evaluate harmirins’ selectivity. The commonly used anticancer drug 5-FU and harmine were used as positive controls. Pre-screening was performed using 50 µM of the tested compound. Only compounds that led to more than 50% reduction in mitochondrial metabolic activity at 50 µM concentration were selected for further analysis. The selectivity index (SI) for each harmirin was calculated as a fractional ratio between the IC50 values for HEK293T and the cancer cell line MCF-7 or HCT116 since these two cell lines were the most susceptible to harmirins.
(§2) The experiments were carried out on five human cell lines purchased from American Type Culture Collection (ATCC, PO BOX 1549, manassas, VA 20108, USA): HepG2 (hepatocellular carcinoma; ATCC® HB-8065™), SW620 (colorectal adenocarcinoma; ATCC® CCL-227™), HCT116 (colorectal carcinoma ATCC® CCL-247™), MCF-7 (breast adenocarcinoma, ATCC® HTB-22™), and HEK293T (embryonic kidney cells; ATCC® CRL-3216™). All cell lines were cultured as monolayers and maintained in Dulbecco’s modified Eagle medium (DMEM) (Capricorn Scientific, USA), supplemented with 10% fetal bovine serum (FBS) (Capricorn Scientific, USA), 100 U/mL penicillin, and 100 µg/mL streptomycin (Capricorn Scientific, USA) in a humidified atmosphere with 5% CO2 at 37 °C. Cells were seeded in 96-well plates (Corning, Durham, NC, USA) at 5000–7000 cells per well (depending on the cell doubling time of a specific cell line) in 0.1 mL media and cultured for 24 h. The next day, the medium was aspirated, and cells were treated for 72 h. Only the compounds that led to more than a 50% reduction in mitochondrial metabolic activity at a concentration of 50 µM were selected for further analysis. The following concentrations of selected compounds were used: 25, 10, 5, and 1 µM. Working dilutions were freshly prepared on the day of the testing. A fresh growth medium was added to untreated control cells, which were defined as 100% viable. DMSO (0.13%) in DMEM was considered a negative control. 5-Fluorouracil (5-FU) and harmine were used as positive controls. At the end of treatment, media was removed, and cells were incubated for 1 h with 0.5 mg/mL MTT (Abcam, Cambridge, MA, USA) dissolved in serum-deprived DMEM. The absorbance was directly proportional to cell viability. The MTT-containing media was then removed, and 0.1 mL isopropanol was added per well to lyse cells and dissolve formazan. The optical density was measured at 570 nm using a microplate reader (VICTOR3, PerkinElmer). Each test point was performed in triplicate. The IC50 values (concentration required to decrease viability by 50%) were calculated by using nonlinear regression on the sigmoidal dose–response plots and are expressed as mean ± SD.

MCF-7 cells = assay: Cell cycle analysis by flow cytometry (PI); assay type: cell-based, human; details: harmine 20 µM
Method: To gain further insight into the potential mechanism of activity of 12b, and to examine whether and how the cell growth inhibition was associated with cell cycle regulation, we assessed its influence on the cell cycle of MCF-7 cells, 24 and 48 h after the treatment and compared it with the influence of the reference compound harmine (Figure 4).
MCF-7 cells were seeded onto 6-well plates (3 × 10^5 cells per well). After 24 h, 12b was added at 10 µM concentration and harmine at 20 µM concentration. After 24 h or 48 h, the attached cells were trypsinized, combined with floating cells, washed with phosphate buffer saline (PBS), fixed with 70% ethanol, and stored at −20 °C. Immediately before analysis, the cells were washed with PBS and stained with 50 μg/mL of propidium iodide (PI) with the addition of 0.1 μg/μL of RNAse A. The stained cells were then analyzed by BD FACScalibur flow cytometer (20,000 counts were measured). The percentage of cells in each cell cycle phase was determined using FlowJo software (TreeStar Inc., USA). The tests were performed in duplicate and repeated in three separate experiments.

SW620 = assay: MTT cytotoxicity assay, SW620; assay type: cell-based; details: Homo sapiens, read-out: IC50 SW620
From the text: as §1, §2

HEK293T = assay: MTT cytotoxicity assay, HEK293T (non-cancer); assay type: cell-based, human; details: Homo sapiens, HEK-293T, 72 h, read-out: IC50 Hek293T
From the text: as §1, §2

MCF-7 = assay: MTT cytotoxicity assay, MCF-7; assay type: cell-based, human; details: for IC50: Homo sapiens, read-out: IC50 MCF-7; for SI (MCF-7): ratio IC50 HEK293T / IC50 MCF-7; for activity against MCF-7, fold stronger than 5-FU: compared with 5-FU IC50; for activity against MCF-7, fold higher than harmine: compared with harmine IC50
From the text: as §1, §2

HCT116 = assay: MTT cytotoxicity assay, HCT116; assay type: cell-based, human; details: for IC50: Homo sapiens, read-out: IC50 HCT116; for SI (HCT116): ratio IC50 HEK293T / IC50 HCT116
From the text: as §1, §2

HT-29 = test system: HT-29; parameters: method as in PMID 26657602; details: read-out: IC50 against HT-29; cited from earlier work
HGC-27 = test system: HGC-27; parameters: method as in PMID 26657602; details: read-out: IC50 against HGC-27; cited from earlier work
[1] = 12b 10 µM, after 24 h (12b: persisted after 48 h)
[2] = MTT, mean ± SD, non-cancer cell line

SMILES | SI (MCF-7) (MCF-7) | SI (HCT116) (HCT116) | IC50 (HepG2; HepG2, MTT, 72 h, mean ± SD) [µM] | melting point | IC50 (SW620; SW-620, MTT, 72 h, mean ± SD) [µM] | IC50 (HEK293T; [2]) [µM] | IC50 (MCF-7; MCF7, MTT, 72 h, mean ± SD) [µM] | IC50 (HCT116; HCT-116, MTT, 72 h, mean ± SD) [µM] | other results
O=c1cc(-c2nccc3c2[nH]c2ccccc23)c2cc(Cl)ccc2o1 [coumarin–β-carboline hybrid] |  |  |  |  |  |  |  |  | GI50 (HeLa): 67.5 µM
COc1ccc2c(c1)[nH]c1c(C)nccc12 [HAR, harmine] | 0.9 | 3.2 |  |  |  |  |  |  | IC50 (HepG2; HepG2, 72 h): 18.7 ± 0.8 µM; accumulation of cells in the subG1 phase (apoptotic cells) (MCF-7 cells; 12b 10 µM, 48 h, data not shown): ≤ 15%; effect on G1 phase of cell cycle (MCF-7 cells; [1]): G1 delay; effect on percentage of cells in S phase (MCF-7 cells; [1]): reduction in cells in the S phase; effect on G2/M phase of cell cycle (MCF-7 cells; after 48 h): additional accumulation of cells in the G2/M phase; IC50 (SW620; SW-620, 72 h): 4.7 ± 0.6 µM; IC50 (HEK293T): 12.6 ± 0.8 µM; IC50 (MCF-7; MCF7, 72 h): 13.5 ± 1.1 µM; IC50 (HCT116; HCT-116, 72 h): 4 ± 0.8 µM
Cc1nc(Cn2cc(COc3cc(=O)oc4ccc(Cl)cc34)nn2)cc2c1[nH]c1ccccc12 [5c, 6-Chloro-4-((1-((1-methyl-9H-pyrido[3,4-b]indol-3-yl)methyl)-1H-1,2,3-triazol-4-yl)methoxy)-2H-chromen-2-one] | 0.6 | 1.2 | 18.5 ± 2.3 | 254 to 257.5 °C (dec.) | > 50 | 8.5 ± 0.3 | 15 ± 1.3 | 7.1 ± 0.7 | 
Cc1nccc2c1[nH]c1cc(OCc3cn(-c4cc(=O)oc5ccc(Cl)cc45)nn3)ccc12 [12c, 6-Chloro-4-(4-(((1-methyl-9H-pyrido[3,4-b]indol-7-yl)oxy)methyl)-1H-1,2,3-triazol-1-yl)-2H-chromen-2-one] | 1.2 | 1.2 | > 50 | 244 to 247 °C (dec.) | > 50 | 46.2 ± 4.7 | 38.2 ± 2.5 | 37.6 ± 6.9 | 
Cc1nccc2c1[nH]c1ccc(OCc3cn(-c4cc(=O)oc5ccc(F)cc45)nn3)cc12 [11d, 6-Fluoro-4-(4-(((1-methyl-9H-pyrido[3,4-b]indol-6-yl)oxy)methyl)-1H-1,2,3-triazol-1-yl)-2H-chromen-2-one] |  |  | 14.2 ± 0.4 | 224.5 to 225.5 °C (dec.) | 12.7 ± 1.8 | 6.9 ± 0.6 | 1.9 ± 0.2 | 2.7 ± 0.4 | activity against MCF-7, fold stronger than 5-FU (MCF-7): 9–13 fold; activity against MCF-7, fold higher than harmine (MCF-7): 5–7 fold
COc1cc(-c2nc(Cn3cc(CN4C(=O)c5ccc(C)cc5C4=O)nn3)cc3c2[nH]c2ccccc23)cc(OC)c1OC [β-carboline–triazole hybrid] |  |  |  |  |  |  |  |  | IC50 (HT-29): 3.67 µM; IC50 (HGC-27): 5.44 µM
O=c1cc(OCc2cn(Cc3nccc4c3[nH]c3ccccc34)nn2)c2cc(Cl)ccc2o1 [4c, 4-((1-((9H-Pyrido[3,4-b]indol-1-yl)methyl)-1H-1,2,3-triazol-4-yl)methoxy)-6-chloro-2H-chromen-2-one] | >1.3 | >1 | > 50 | 263.5 to 265 °C (dec.) | > 50 | > 50 | 39.1 ± 3.6 | > 50 | 
COc1ccc2c3ccnc(C)c3n(Cc3cn(-c4cc(=O)oc5ccc(F)cc45)nn3)c2c1 [13d, 6-Fluoro-4-(4-((7-methoxy-1-methyl-9H-pyrido[3,4-b]indol-9-yl)methyl)-1H-1,2,3-triazol-1-yl)-2H-chromen-2-one] | 1.5 | 0.3 | 3.1 ± 0.5 | 235 to 237 °C (dec.) | 3.3 ± 0.4 | 3.9 ± 0.3 | 2.7 ± 0.5 | 12.7 ± 0.6 | activity against MCF-7, fold stronger than 5-FU (MCF-7): 9–13 fold; activity against MCF-7, fold higher than harmine (MCF-7): 5–7 fold
Cc1nc(Cn2cc(COc3cc(=O)oc4ccc(F)cc34)nn2)cc2c1[nH]c1ccccc12 [5d, 6-Fluoro-4-((1-((1-methyl-9H-pyrido[3,4-b]indol-3-yl)methyl)-1H-1,2,3-triazol-4-yl)methoxy)-2H-chromen-2-one] | <0.1 | <0.1 | > 50 | 259 to 261.5 °C (dec.) | > 50 | 7 ± 1.6 |  | > 50 | 
Cc1nc(Cn2cc(COc3cc(=O)oc4ccccc34)nn2)cc2c1[nH]c1ccccc12 [5a, 4-((1-((1-Methyl-9H-pyrido[3,4-b]indol-3-yl)methyl)-1H-1,2,3-triazol-4-yl)methoxy)-2H-chromen-2-one] | <0.1 | <0.1 | 17.8 ± 1.8 | 149.5 to 153.5 °C (dec.) | > 50 | 6.5 ± 1.6 | > 50 | > 50 | 
COc1ccc2c3ccnc(C)c3n(Cc3cn(-c4cc(=O)oc5ccccc45)nn3)c2c1 [13a, 4-(4-((7-Methoxy-1-methyl-9H-pyrido[3,4-b]indol-9-yl)methyl)-1H-1,2,3-triazol-1-yl)-2H-chromen-2-one] | 0.4 | 3.6 | 19.6 ± 1.3 | 239 to 243.5 °C (dec.) | > 50 | 12.4 ± 1.1 | 34 ± 2.1 | 3.4 ± 0.6 | 
